This note sets out measurements from publication PMC9267659, “Directed Evolution of Phi Class Glutathione Transferases Involved in Multiple-Herbicide Resistance of Grass Weeds and Crops” (International Journal of Molecular Sciences, 2022).

Test [1] relates to T1, sh155.
T1 construct: gene AmGSTF; DNA-shuffled GSTF, 17 mutations vs AmGSTF (named in text: S90G, E93K, Q119E, F122I, M125L, DEK132-134NQT)
Briefly: dose-response inhibition of GST activity. The class given is biochemical, Alopecurus myosuroides. An excerpt:
dose-response inhibition of GST activity on sh155

Another test deals with T2, sh168.
T2 construct: gene AmGSTF; has K93; keeps F122, M125 and DEK132-134 of AmGSTF; C-His, E. coli, dimer
Briefly: dose-response inhibition of GST activity. The class given is biochemical, Alopecurus myosuroides. An excerpt:
dose-response inhibition of GST activity on sh168

For test [2], the target named is T3, TdGSTF (Triticum turgidum, UniProt A0A9R0QM20).
T3 construct: gene TRITD_1Bv1G036980; full length, pEXP5-CT/TOPO template, His-tagged, E. coli, Ni-IDA-Sepharose purified, homodimer
T3 sequence (A0A9R0QM20 1-219): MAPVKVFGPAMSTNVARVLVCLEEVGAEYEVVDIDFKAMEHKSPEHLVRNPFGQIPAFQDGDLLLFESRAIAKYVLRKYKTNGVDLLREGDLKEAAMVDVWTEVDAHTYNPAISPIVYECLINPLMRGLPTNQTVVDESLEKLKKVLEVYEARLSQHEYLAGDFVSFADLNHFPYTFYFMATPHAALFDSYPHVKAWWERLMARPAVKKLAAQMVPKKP
Briefly: dose-response inhibition of GST activity. The class given is biochemical. The text has this:
dose-response inhibition of GST activity on TdGSTF

The subject of test [3] is T4, sh101.
T4 construct: gene AmGSTF; DNA-shuffled GSTF, 11 mutations vs AmGSTF (named in text: S90G, E93K, Q119E, F122I, M125L, DEK132-134NQT)
Briefly: dose-response inhibition of GST activity. The test is classed as biochemical, Alopecurus myosuroides. The text has this:
dose-response inhibition of GST activity on sh101

For test [4], the target named is T5, LrGSTF (Lolium rigidum, UniProt M5BPX4).
T5 construct: gene GST; full length, synthetic gene, His-tagged (C-His vector), E. coli, Ni-IDA-Sepharose purified, homodimer
T5 sequence (M5BPX4 1-219): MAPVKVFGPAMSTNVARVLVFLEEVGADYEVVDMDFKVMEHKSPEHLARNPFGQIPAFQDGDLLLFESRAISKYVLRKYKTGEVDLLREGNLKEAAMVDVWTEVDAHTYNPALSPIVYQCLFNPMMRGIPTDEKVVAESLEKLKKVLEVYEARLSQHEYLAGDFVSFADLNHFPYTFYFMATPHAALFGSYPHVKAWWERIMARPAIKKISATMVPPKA
Briefly: dose-response inhibition of GST activity. The class given is biochemical. The text has this:
dose-response inhibition of GST activity on LrGSTF

The next test relates to T6, sh49.
T6 construct: gene AmGSTF; keeps F122, M125, E93 and DEK132-134 of AmGSTF; C-His, E. coli, dimer
Briefly: dose-response inhibition of GST activity. The class given is biochemical, Alopecurus myosuroides. An excerpt:
dose-response inhibition of GST activity on sh49

The target in test [5] is T7, AmGSTF (Alopecurus myosuroides, UniProt Q9ZS17).
T7 construct: gene GST2c; full length, synthetic gene, His-tagged (C-His vector), E. coli, Ni-IDA-Sepharose purified, homodimer
T7 sequence (Q9ZS17 1-219): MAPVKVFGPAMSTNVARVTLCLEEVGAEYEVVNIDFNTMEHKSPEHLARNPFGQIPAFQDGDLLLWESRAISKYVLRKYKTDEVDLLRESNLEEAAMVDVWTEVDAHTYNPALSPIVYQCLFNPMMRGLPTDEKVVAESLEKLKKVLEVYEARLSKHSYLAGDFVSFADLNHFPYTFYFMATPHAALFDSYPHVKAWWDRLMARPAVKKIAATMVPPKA
Briefly: dose-response inhibition of GST activity. The test is classed as biochemical. The text has this: dose-response inhibition of GST activity on AmGSTF

The target of test [6] is T8, HvGSTF (Hordeum vulgare, UniProt Q8VWW3).
T8 construct: gene GST6; full length, pEXP5-CT/TOPO template, His-tagged, E. coli, Ni-IDA-Sepharose purified, homodimer
T8 sequence (Q8VWW3 1-219): T3 sequence (A0A9R0QM20 1-219) with N82D, G83E, D91N, I113L, E158K, R200S, V207I
Briefly: dose-response inhibition of GST activity. The test is classed as biochemical. An excerpt:
dose-response inhibition of GST activity on HvGSTF

Test [7] addresses T8, HvGSTF. Briefly: steady-state kinetics, CDNB conjugation. The test is classed as biochemical. The note with it: read-out: S0.5 (mM) / CDNB; co-substrate GSH; 0.1 M sodium phosphate pH 6.5, 37 °C; positive cooperativity, nH 1.46. An excerpt: steady-state kinetics, CDNB conjugation on HvGSTF
The target in test [8] is T3, TdGSTF. Briefly: steady-state kinetics, CDNB conjugation. The class given is biochemical. The note with it: read-out: S0.5 (mM) / CDNB; co-substrate GSH; 0.1 M sodium phosphate pH 6.5, 37 °C; positive cooperativity, nH 1.43. An excerpt:
steady-state kinetics, CDNB conjugation on TdGSTF

The subject of test [9] is T1, sh155. Briefly: steady-state kinetics, CDNB conjugation. The test is classed as biochemical, Alopecurus myosuroides. The settings on record: co-substrate GSH; 0.1 M sodium phosphate pH 6.5, 37 °C; nH 1.02; read-out: S0.5 (mM) / CDNB. An excerpt:
steady-state kinetics, CDNB conjugation on sh155

For test [10], the system named is T4, sh101. Briefly: steady-state kinetics, CDNB conjugation. The test is classed as biochemical, Alopecurus myosuroides. The note with it: co-substrate GSH; 0.1 M sodium phosphate pH 6.5, 37 °C; nH 1.1; read-out: S0.5 (mM) / CDNB. The text has this: steady-state kinetics, CDNB conjugation on sh101
The target in test [11] is T5, LrGSTF. Briefly: steady-state kinetics, CDNB conjugation. The class given is biochemical. The note with it: read-out: S0.5 (mM) / CDNB; co-substrate GSH; 0.1 M sodium phosphate pH 6.5, 37 °C; positive cooperativity, nH 1.41. The text has this:
steady-state kinetics, CDNB conjugation on LrGSTF

Test [12] deals with T7, AmGSTF. Briefly: steady-state kinetics, CDNB conjugation. The test is classed as biochemical. The note with it: read-out: S0.5 (mM) / CDNB; co-substrate GSH; 0.1 M sodium phosphate pH 6.5, 37 °C; positive cooperativity, nH 1.5. An excerpt:
steady-state kinetics, CDNB conjugation on AmGSTF

Substitutions are numbered along the chain they refer to.

By IC50 is commonly meant the concentration needed to halve the response being measured. As to `CCCCOCN(C(=O)CCl)c1c(CC)cccc1CC` [butachlor], the IC50 was 3.4 ± 0.1 µM with sh155 [1]; 3.1 ± 0.08 µM with sh168; 9.9 ± 0.2 µM against TdGSTF [2]; 5.9 ± 0.4 µM in the test on sh101 [3]; 7.1 ± 0.5 µM against LrGSTF [4]; 2600 ± 40 nM in the test with sh49. For the same compound, the IC50 on AmGSTF [5] was 7.3 ± 0.4 µM; against HvGSTF [6] it was 9.2 ± 0.6 µM.

Turning to `O=[N+]([O-])c1ccc(Cl)c([N+](=O)[O-])c1` [CDNB], the Km at HvGSTF [7] turned out to be 0.52 ± 0.01 mM; at TdGSTF [8], 0.51 ± 0.02 mM; in the test on sh155 [9], 0.77 ± 0.06 mM; in the test on sh101 [10], 0.41 ± 0.02 mM; at LrGSTF [11], 0.76 ± 0.04 mM; on AmGSTF [12], 0.65 ± 0.03 mM.
